Source: PubChem BioAssay AID2060882 (Molecular Pharmacology Branch, DTP, NCI, 2025)
Values belong to the compound of their own block, whether it stands above or below them.

Test system: 898857-211-R-J1-PDC complex spheroids, growth % test/control
Experiment: Anticancer human tumor 898857-211-R-J1-PDC patient-derived melanoma cell line growth inhibition [RAS]
Conditions: for IC50: curve of first compound; for viability, T/C: stronger effect = lower value
Excerpt: RAS pathway inhibitors in Combinations in Complex Spheroids
A high-throughput screen of multi-cell type tumor spheroids was designed to identify active combinations of RAS pathway inhibitors and targeted small molecules. Complex spheroids include a stromal component modeled by human endothelial cells (HUVEC) and fibroblasts modeled by human mesenchymal stem cells (MSCs). The concentration ranges selected for each drug and investigational agent were based upon clinically achievable concentrations if the clinical Cmax of the agent was known.
Compounds. The drugs and investigational agents: abemaciclib (NSC768073), cobimetinib (NSC768068), divarasib (GDC6063, NSC841802), docetaxel (NSC628503), GDC-1971 (RLY-1971, NSC841576), gemcitabine (NSC613327), inavolisib (NSC800729), ipatasertib (NSC767898), KB-0742 (NSC834161), MRTX-1133 (NSC836407), osimertinib (NSC779217), RMC-4630 (NSC839698), RMC-6236 (NSC851965), RMC-6291 (NSC852671), Ro-3306 (NSC812927), sapanisertib (NSC764658), SN-38 (NSC673596), staurosporine (NSC755774), SY5609 (NSC837396), and tovorafenib (DAY101, NSC766906), were obtained from the National Cancer Institute (NCI) Developmental Therapeutics Program Chemical Repository. The FDA-approved anticancer drug set is available from the NCI Developmental Therapeutics Program. […] The stock solutions were prepared in dimethyl sulfoxide (DMSO, Sigma-Aldrich, St. Louis, MO, cat. D2650) at 800-fold the tested concentration and stored at -70 degrees C prior to their use. All drugs and investigational agents were tested over a range starting from a high concentration at or near the clinical Cmax and decreasing in half-log increments. If the clinical Cmax for an agent had not been determined, the highest concentration tested was 10 microM.
Cell Culture. All cells were maintained in an incubator at 37 degrees C and 5% CO2 with 95% humidity. The PDC lines were cultured according to standard operating procedures established by the NCI PDMR. All PDCs were thawed and cultured in Matrigel-coated flasks prepared with a working solution of 1X Ham's F-12 nutrient mix, without supplementation (Invitrogen, Waltham, MA, cat. 11765054), 100 U/mL penicillin-streptomycin (Invitrogen, cat. 15140122), and 2.5% Matrigel (Corning Inc., Corning, NY, cat. 354248) for the first three passages. The 362531-283-R-J2-PDC and 782815-120-R-J1-PDC lines were cultured in 6C/Colon 1B media, which includes advanced DMEM/F-12 (Thermo Fisher Scientific, cat. 12634028), 10 mM HEPES (Thermo Fisher Scientific, cat. 15630080), 1X GlutaMAX supplement (Thermo Fisher Scientific, cat. 35050061), 0.1 mg/mL primocin (InvivoGen, San Diego, CA, cat. ant-pm-2), 10% defined fetal bovine serum, heat inactivated (HyClone Laboratories Inc., Logan, UT, cat. SH30070.03HI), 50% L-WRN conditioned media (ATCC, cat. CRL-3276), 1.25 mM N-Acetyl-L-cysteine (Sigma-Aldrich, cat. A9165), 10 mM nicotinamide (Sigma-Aldrich, cat. N0636), 1X B-27 supplement (Thermo Fisher Scientific, cat. 17504044), 1X N-2 supplement (Thermo Fisher Scientific, cat. 17502048), 50 ng/mL human EGF (Thermo Fisher Scientific, cat. PHG0311), and 10 microM Y-27632 dihydrochloride (Tocris Bioscience, cat. 1254). The K12877-001-R-J1-PDC line was cultured in 6I media, which includes all 6C/Colon 1B media plus 10 ng/mL human FGF-10 (PeproTech, cat. 100-26), 1 ng/mL human FGF-2 (PeproTech, cat. 100-18B), 1 µM prostaglandin E2 (Tocris Bioscience, cat. 2296), […] hydrocortisone (Sigma-Aldrich, cat. H4001), and […] bovine insulin (Sigma-Aldrich, cat. I6634). The K86415-001-R-J1-PDC line was cultured in 6D media, which includes all 6C/Colon 1B media components minus the L-WRN conditioned media. The 485176-168-R4-J1-PDC was cultured in PANC media, which includes all 6C/Colon 1B media plus 100 ng/mL human FGF-10 (PeproTech, cat. 100-26), 500 nM SB-431542 (Selleckchem, cat. S1067), and 10 nM gastrin (Tocris Bioscience, cat. 3006). […]

[1] = second compound 0.0316 µM, first compound 0.0316 µM
[2] = second compound 0.0316 µM, first compound 0.1 µM
[3] = second compound 0.0316 µM, first compound 0.316 µM
[4] = second compound 0.0316 µM, first compound 1 µM
[5] = second compound 0.0316 µM, first compound 3.16 µM
[6] = second compound 0.0316 µM, first compound 10 µM
[7] = second compound 0.1 µM, first compound 0.0316 µM
[8] = second compound 0.1 µM, first compound 0.1 µM
[9] = second compound 0.1 µM, first compound 0.316 µM
[10] = second compound 0.1 µM, first compound 1 µM
[11] = second compound 0.1 µM, first compound 3.16 µM
[12] = second compound 0.1 µM, first compound 10 µM
[13] = second compound 0.316 µM, first compound 0.0316 µM
[14] = second compound 0.316 µM, first compound 0.1 µM
[15] = second compound 0.316 µM, first compound 0.316 µM
[16] = second compound 0.316 µM, first compound 1 µM
[17] = second compound 0.316 µM, first compound 3.16 µM
[18] = second compound 0.316 µM, first compound 10 µM
[19] = second compound 1 µM, first compound 0.0316 µM
[20] = second compound 1 µM, first compound 0.1 µM
[21] = second compound 1 µM, first compound 0.316 µM
[22] = second compound 1 µM, first compound 1 µM
[23] = second compound 1 µM, first compound 3.16 µM
[24] = second compound 1 µM, first compound 10 µM
[25] = second compound 3.16 µM, first compound 0.0316 µM
[26] = second compound 3.16 µM, first compound 0.1 µM
[27] = second compound 3.16 µM, first compound 0.316 µM
[28] = second compound 3.16 µM, first compound 1 µM
[29] = second compound 3.16 µM, first compound 3.16 µM
[30] = second compound 3.16 µM, first compound 10 µM
[31] = second compound 10 µM, first compound 0.0316 µM
[32] = second compound 10 µM, first compound 0.1 µM
[33] = second compound 10 µM, first compound 0.316 µM
[34] = second compound 10 µM, first compound 1 µM
[35] = second compound 10 µM, first compound 3.16 µM
[36] = second compound 10 µM, first compound 10 µM
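Note: spheroids exposed to compound for seven days before readout.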
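Throughout, for viability, T/C: 100% = DMSO vehicle control wells.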

IC50 (second compound 0.0316 µM): > 10000 nM
IC50 (second compound 0.1 µM): > 10000 nM
IC50 (second compound 0.316 µM): > 10000 nM
IC50 (second compound 1 µM): > 10000 nM
IC50 (second compound 3.16 µM): > 10000 nM
IC50 (second compound 10 µM): < 31.6 nM
Compound: Cc1nc(N2CCC3(CC2)COC(C)C3N)c(CO)nc1Sc1ccnc(N)c1Cl (stereo unspecified) + C#Cc1c(F)ccc2cc(O)cc(-c3ncc4c(N5CC6CCC(C5)N6)nc(OCC56CCCN5CC(F)C6)nc4c3F)c12
viability, T/C [1]: 117%
viability, T/C [2]: 91.8%
viability, T/C [3]: 100%
viability, T/C [4]: 97.3%
viability, T/C [5]: 89.8%
viability, T/C [6]: 88.3%
viability, T/C [7]: 103%
viability, T/C [8]: 96.6%
viability, T/C [9]: 96.2%
viability, T/C [10]: 87.1%
viability, T/C [11]: 97.2%
viability, T/C [12]: 86.3%
viability, T/C [13]: 101%
viability, T/C [14]: 102%
viability, T/C [15]: 102%
viability, T/C [16]: 98.2%
viability, T/C [17]: 103%
viability, T/C [18]: 99%
viability, T/C [19]: 104%
viability, T/C [20]: 108%
viability, T/C [21]: 107%
viability, T/C [22]: 104%
viability, T/C [23]: 96.6%
viability, T/C [24]: 108%
viability, T/C [25]: 96.8%
viability, T/C [26]: 108%
viability, T/C [27]: 86.3%
viability, T/C [28]: 106%
viability, T/C [29]: 103%
viability, T/C [30]: 90.8%
viability, T/C [31]: 37.6%
viability, T/C [32]: 45.1%
viability, T/C [33]: 49%
viability, T/C [34]: 52.2%
viability, T/C [35]: 38.2%
viability, T/C [36]: 15.8%

IC50 (second compound 0.0316 µM): > 10000 nM
IC50 (second compound 0.1 µM): > 10000 nM
IC50 (second compound 0.316 µM): > 10000 nM
IC50 (second compound 1 µM): > 10000 nM
IC50 (second compound 3.16 µM): > 10000 nM
IC50 (second compound 10 µM): 35.7 nM
Compound: NC1c2ccccc2OC12CCN(c1cnc3c(N4CCCc5ncccc54)n[nH]c3n1)CC2 (stereo unspecified) + C#Cc1c(F)ccc2cc(O)cc(-c3ncc4c(N5CC6CCC(C5)N6)nc(OCC56CCCN5CC(F)C6)nc4c3F)c12
viability, T/C [1]: 95.6%
viability, T/C [2]: 90.5%
viability, T/C [3]: 90.5%
viability, T/C [4]: 88.5%
viability, T/C [5]: 91.5%
viability, T/C [6]: 74.9%
viability, T/C [7]: 91.8%
viability, T/C [8]: 89.3%
viability, T/C [9]: 103%
viability, T/C [10]: 91.7%
viability, T/C [11]: 87.3%
viability, T/C [12]: 74.4%
viability, T/C [13]: 99.5%
viability, T/C [14]: 98%
viability, T/C [15]: 94%
viability, T/C [16]: 88.1%
viability, T/C [17]: 88.7%
viability, T/C [18]: 77.1%
viability, T/C [19]: 109%
viability, T/C [20]: 105%
viability, T/C [21]: 100%
viability, T/C [22]: 91.5%
viability, T/C [23]: 103%
viability, T/C [24]: 76%
viability, T/C [25]: 102%
viability, T/C [26]: 93.7%
viability, T/C [27]: 109%
viability, T/C [28]: 99.5%
viability, T/C [29]: 95.9%
viability, T/C [30]: 50.4%
viability, T/C [31]: 49%
viability, T/C [32]: 48%
viability, T/C [33]: 25.5%
viability, T/C [34]: 22.5%
viability, T/C [35]: 9.18%
viability, T/C [36]: 2.12%

IC50 (second compound 0.0316 µM): 7.32 nM
IC50 (second compound 0.1 µM): 7.52 nM
IC50 (second compound 0.316 µM): 7.89 nM
IC50 (second compound 1 µM): 7.11 nM
IC50 (second compound 3.16 µM): 7.22 nM
IC50 (second compound 10 µM): < 3.16 nM
Compound: Nc1ccn(C2OC(CO)C(O)C2(F)F)c(=O)n1 (stereo unspecified) + C#Cc1c(F)ccc2cc(O)cc(-c3ncc4c(N5CC6CCC(C5)N6)nc(OCC56CCCN5CC(F)C6)nc4c3F)c12
viability, T/C (second compound 0.0316 µM, first compound 0.00316 µM): 105%
viability, T/C (second compound 0.0316 µM, first compound 0.01 µM): 29.7%
viability, T/C [1]: 6.72%
viability, T/C [2]: 5%
viability, T/C [3]: 5.45%
viability, T/C [4]: 5.38%
viability, T/C (second compound 0.1 µM, first compound 0.00316 µM): 92.7%
viability, T/C (second compound 0.1 µM, first compound 0.01 µM): 36%
viability, T/C [7]: 7.32%
viability, T/C [8]: 5.55%
viability, T/C [9]: 5.77%
viability, T/C [10]: 5.83%
viability, T/C (second compound 0.316 µM, first compound 0.00316 µM): 97.4%
viability, T/C (second compound 0.316 µM, first compound 0.01 µM): 37.7%
viability, T/C [13]: 7.43%
viability, T/C [14]: 4.86%
viability, T/C [15]: 5.48%
viability, T/C [16]: 5.75%
viability, T/C (second compound 1 µM, first compound 0.00316 µM): 91.7%
viability, T/C (second compound 1 µM, first compound 0.01 µM): 32.4%
viability, T/C [19]: 8.35%
viability, T/C [20]: 5.57%
viability, T/C [21]: 4.9%
viability, T/C [22]: 5.48%
viability, T/C (second compound 3.16 µM, first compound 0.00316 µM): 99%
viability, T/C (second compound 3.16 µM, first compound 0.01 µM): 30.7%
viability, T/C [25]: 7.65%
viability, T/C [26]: 6.3%
viability, T/C [27]: 5.81%
viability, T/C [28]: 5.63%
viability, T/C (second compound 10 µM, first compound 0.00316 µM): 46.4%
viability, T/C (second compound 10 µM, first compound 0.01 µM): 25.8%
viability, T/C [31]: 7.48%
viability, T/C [32]: 6.16%
viability, T/C [33]: 6.42%
viability, T/C [34]: 5.33%
